According to US8232407B2, “Nitrogenous heterocyclic compounds with insecticidal activity, and the preparation and use thereof” (East China University of Science and Technology, priority 2008, dated 2012):

Tests used:
Format in all cases: in vivo
Aphis craccivoral = experiment: Insecticidal activities to aphids, immersion method; conditions: for Aphis craccivoral Mortality (%) 500 ppm: in vivo
How it was run: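 Immersion assay: compound diluted from 10 g/L DMF stock to 500 ppm in 0.2 mL/L Triton X-100, sprout-feeding wingless adults dipped 5 s. Kept at 23° C, three repeats; 24 h mortality calculated relative to surviving Triton-treated controls.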

Nilaparvata lugens = experiment: Insecticidal activities to plant hopper, spraying method; conditions: for Nilaparvata lugens Mortality (%) 500 ppm: in vivo
How it was run: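 Spray test: acetone solutions of 500 down to 0.79 ppm, 2 ml per tumbler holding 10 planthoppers introduced 6 h earlier, triplicate, aqueous acetone as control. Mortality at 24 h calculated from survivors relative to control.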

[1] = test system: Pseudaletia separate Walker; experiment: Insecticidal activities to armyworm, leaf dipping and feeding
How it was run: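 Armyworms (10 per tumbler, 3 replicates) ate fresh maize leaves that had been immersed for 3 seconds in compound solutions of 1.57-500 ppm in acetone, or in aqueous acetone for controls. Kills were scored at 24 h, and mortality was calculated relative to survivors in the control group.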

Plutella xylostella = experiment: Insecticidal activities to diamondback moth, feeding dipped leaves; conditions: for Plutella xylostella Mortality (%) 500 ppm: in vivo
How it was run: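 Mortality was scored 24 h after larvae of Plutella xylostella (10 per treatment, 3 repeats) fed on cabbage leaves immersed 3 s in test solution and dried at room temperature. It was computed relative to survivors in a water-treated control.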

| SMILES | Aphis craccivoral Mortality (%) 500 ppm (Aphis craccivoral) [%] | Nilaparvata lugens Mortality (%) 500 ppm (Nilaparvata lugens) [%] | Pseudaletia separate Walker Mortality (%) 500 ppm ([1]; in vivo) [%] | Plutella xylostella Mortality (%) 500 ppm (Plutella xylostella) [%] | mortality at 500 ppm (Aphis craccivoral; Aphis, 500 ppm, immersion method, read-out: Aphis craccivoral Mortality (%) 500 ppm) [%] | mortality at 500 ppm (Nilaparvata lugens; Nilaparvata lugens, 500 ppm, spraying method, counted after 24 hours, read-out: Nilaparvata lugens Mortality (%) 500 ppm) [%] | Pseudaletia separate Walker Mortality (%) 500 ppm ([1]; 500 ppm, leaf dipping and feeding, counted after 24 hours) [%] | mortality at 500 ppm (Plutella xylostella; Plutella xylostella, 500 ppm, feeding dipped leaves, counted after 24 hours, read-out: Plutella xylostella Mortality (%) 500 ppm) [%] |
| --- | --- | --- | --- | --- | --- | --- | --- | --- |
| C[N+]1=C(C(=Cc2ccc([N+](=O)[O-])s2)[N+](=O)[O-])N(Cc2cnc(Cl)s2)CC1.[Cl-] [Compound 282] | 100 | 100 | 100 | 100 |  |  |  |  |
| CCc1ccc(C=C(C2=NCCCN2Cc2ccc(Cl)nc2)[N+](=O)[O-])o1 [Compound 59] | 57 | 84 | 86 | 100 |  |  |  |  |
| C[N+]1=C(C(=Cc2ccc[nH]2)[N+](=O)[O-])N(Cc2ccc(Cl)nc2)CC1.[Cl-] [Compound 274] | 100 | 100 | 100 | 100 |  |  |  |  |
| O=[N+]([O-])C(=Cc1ccsc1)C1=NCCCN1Cc1ccc(Cl)nc1 [Compound 62] | 90 | 100 | 100 | 100 |  |  |  |  |
| C[N+]1=C(C(=Cc2cc(Br)c(Br)s2)[N+](=O)[O-])N(Cc2ccc(Cl)nc2)CC1.[Cl-] [Compound 268] | 100 | 100 | 100 | 100 |  |  |  |  |
| O=[N+]([O-])C(=Cc1cc(Cl)c(Cl)o1)C1=NCCN1Cc1ccccc1 [Compound 108] | 87 | 95 | 24 | 24 |  |  |  |  |
| C[N+]1=C(/C(=C\c2ccc[nH]2)[N+](=O)[O-])N(Cc2cnc(Cl)s2)CC1.[Cl-] [Compound 284] | 100 | 100 | 100 | 100 |  |  |  |  |
| O=[N+]([O-])C(=Cc1cc(Br)co1)C1=NCCN1Cc1ccccc1 [Compound 107] | 82 | 92 | 96 | 85 |  |  |  |  |
| CC[N+]1=C(/C(=C\c2ccc[nH]2)[N+](=O)[O-])N(Cc2ccc(Cl)nc2)CC1.[Cl-] [Compound 295] | 100 | 100 | 100 | 100 |  |  |  |  |
| O=[N+]([O-])C(=Cc1oc(Cl)cc1Cl)C1=NCCN1Cc1ccc(Cl)nc1 [Compound 9] | 100 | 100 | 100 | 100 |  |  |  |  |
| Cc1ccc(C=C(C2=NCCN2Cc2cnc(Cl)s2)[N+](=O)[O-])o1 [Compound 79] | 100 | 100 | 100 | 100 |  |  |  |  |
| CC[N+]1=C(C(=Cc2ccc(Br)o2)[N+](=O)[O-])N(Cc2ccc(Cl)nc2)CC1.[Cl-] [Compound 289] | 100 | 100 | 100 | 100 |  |  |  |  |
| CC(=C(C1=NCCN1C(C)c1ccc(Cl)nc1)[N+](=O)[O-])c1ccco1 (racemic) [Compound 133] | 48 | 50 | 90 | 68 |  |  |  |  |
| Cc1ccc(C=C(C2=NCCCN2Cc2ccc(Cl)nc2)[N+](=O)[O-])o1 [Compound 57] | 100 | 78 | 100 | 100 |  |  |  |  |
| CC[N+]1=C(C(=Cc2ccco2)[N+](=O)[O-])N(Cc2ccc(Cl)nc2)CC1.[Cl-] [Compound 285] | 100 | 100 | 100 | 100 |  |  |  |  |
| O=[N+]([O-])/C(=C/c1ccco1)C1=NCCCN1Cc1ccc(Cl)nc1 [Compound 46, 1-((6-chloropyridin-3-yl)methyl)-2-(2-(furan-2-yl)-1-nitrovinyl)-1,4,5,6-tetrahydropyrimidine] |  |  |  |  | 100 | 100 | 100 | 100 |
| O=[N+]([O-])C(=Cc1ccc(Br)s1)C1=NCCCN1Cc1ccc(Cl)nc1 [Compound 65] | 73 | 100 | 92 | 100 |  |  |  |  |
| O=[N+]([O-])C(=Cc1oc(Cl)cc1Cl)C1=NCCN1Cc1ccccc1 [Compound 109] | 91 | 100 | 60 | 56 |  |  |  |  |
